Results: ChEMBL document CHEMBL1154622, “Structure-guided design of potent and selective pyrimidylpyrrole inhibitors of extracellular signal-regulated kinase (ERK) using conformational control” (J Med Chem, 2009)

Columns and labels:
Aurora kinase A = target: T1, Aurora kinase A (Homo sapiens, UniProt O14965); test: Inhibition of AURA
T1 sequence (O14965 whole entry): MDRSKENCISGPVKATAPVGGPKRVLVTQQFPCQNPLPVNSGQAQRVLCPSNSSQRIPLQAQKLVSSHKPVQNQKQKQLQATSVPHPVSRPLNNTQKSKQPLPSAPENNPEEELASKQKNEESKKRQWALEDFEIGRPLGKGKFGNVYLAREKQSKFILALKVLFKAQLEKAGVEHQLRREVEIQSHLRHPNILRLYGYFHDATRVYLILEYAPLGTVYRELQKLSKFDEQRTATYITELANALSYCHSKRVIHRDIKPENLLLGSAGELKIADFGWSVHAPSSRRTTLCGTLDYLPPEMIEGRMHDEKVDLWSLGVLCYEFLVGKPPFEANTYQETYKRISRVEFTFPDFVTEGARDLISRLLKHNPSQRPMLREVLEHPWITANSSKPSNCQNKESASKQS

HT-29 = test: Antiproliferative activity against human HT-29 cells; format: functional, cell-based
[1] = Inhibition of GSK3
[2] = target: Cyclin-dependent kinase 2 (Homo sapiens, UniProt P24941)
[3] = target: Mitogen-activated protein kinase 1 (Homo sapiens, UniProt P28482)
Chain of Mitogen-activated protein kinase 1 (P28482 whole entry): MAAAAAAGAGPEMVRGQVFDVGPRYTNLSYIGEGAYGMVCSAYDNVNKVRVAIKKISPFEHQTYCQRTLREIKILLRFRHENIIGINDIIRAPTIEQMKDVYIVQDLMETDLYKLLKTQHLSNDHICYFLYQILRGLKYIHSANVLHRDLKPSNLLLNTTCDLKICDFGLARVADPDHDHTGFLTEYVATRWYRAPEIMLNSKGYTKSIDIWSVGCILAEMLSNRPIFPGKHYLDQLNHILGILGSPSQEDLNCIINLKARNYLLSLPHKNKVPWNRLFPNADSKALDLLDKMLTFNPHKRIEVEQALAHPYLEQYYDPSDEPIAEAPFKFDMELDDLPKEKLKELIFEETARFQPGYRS
Description: Inhibition of ERK2 after 10 mins by spectrophotometric coupled-enzyme assay

| Compound | Ki (Aurora kinase A) [nM] | IC50 (HT-29) [nM] | Ki [1] [nM] | Ki [2] [nM] | Ki [3] [nM] |
| --- | --- | --- | --- | --- | --- |
| Cc1cnc(Nc2ccccc2F)nc1-c1c[nH]c(C(=O)N[C@H](CO)c2ccccc2)c1 | 160 | 26 | 45 | 57 | < 2 |
| Cc1cnc(Nc2ccccc2Cl)nc1-c1c[nH]c(C(=O)N[C@H](CO)c2ccccc2)c1 | 1550 |  | 190 | 240 | < 2 |
| Cc1cnc(Nc2cccc(F)c2C)nc1-c1c[nH]c(C(=O)N[C@H](CO)c2cccc(Cl)c2)c1 | 410 | 56 | 1260 | 150 | 34 |
| Cc1cccc([C@@H](CO)NC(=O)c2cc(-c3nc(Nc4ccccc4)ncc3C)c[nH]2)c1 | 45 | 40 | 26 | 69 | < 2 |
| Cc1cnc(Nc2cccc3c2CCCC3)nc1-c1c[nH]c(C(=O)N[C@H](CO)c2cccc(Cl)c2)c1 | 280 | 420 | 667 | 250 | 13 |
| Cc1cnc(Nc2cccc3c2OC(F)(F)O3)nc1-c1c[nH]c(C(=O)N[C@H](CO)c2cccc(Cl)c2)c1 | > 800 | 280 | 310 | 170 | < 2 |
| Cc1cnc(Nc2ccccc2)nc1-c1c[nH]c(C(=O)N[C@H](CO)c2cccc(Cl)c2)c1 | 19 | 100 | 140 | 290 | < 2 |
| Cc1cnc(Nc2cccc(C)c2C)nc1-c1c[nH]c(C(=O)N[C@H](CO)c2cccc(Cl)c2)c1 | 440 |  | 110 | 41 | < 2 |
| Cc1cc(Cl)ccc1Nc1ncc(C)c(-c2c[nH]c(C(=O)N[C@H](CO)c3cccc(Cl)c3)c2)n1 | 410 | 98 | 1100 | 76 | 5 |
| COc1cccc(Nc2ncc(C)c(-c3c[nH]c(C(=O)N[C@H](CO)c4cccc(Cl)c4)c3)n2)c1OC | > 200 | 230 | > 2500 | > 2500 | 3 |
| Cc1cnc(Nc2ccccc2C(F)(F)F)nc1-c1c[nH]c(C(=O)N[C@H](CO)c2ccccc2)c1 | > 800 | 6300 |  | > 4000 |  |
| Cc1cnc(Nc2ccccc2)nc1-c1c[nH]c(C(=O)N[C@@H](CO)c2ccccc2)c1 | 270 |  |  |  | 670 |
| CCc1ccccc1Nc1ncc(C)c(-c2c[nH]c(C(=O)N[C@H](CO)c3cccc(Cl)c3)c2)n1 | 720 | 39 | 150 | 450 | < 2 |
| Cc1cnc(Nc2cccc3c2OCO3)nc1-c1c[nH]c(C(=O)N[C@H](CO)c2cccc(Cl)c2)c1 | 15 | 58 | 33 | 209 | < 2 |
| Cc1ccccc1Nc1ncc(C)c(-c2c[nH]c(C(=O)N[C@H](CO)c3cccc(Cl)c3)c2)n1 | 400 |  | < 2 |  |  |
| Cc1cnc(Nc2ccc(Cl)cc2F)nc1-c1c[nH]c(C(=O)N[C@H](CO)c2cccc(Cl)c2)c1 | 540 | 97 | 450 | 316 | 5 |
| Cc1ccccc1Nc1ncc(C)c(-c2c[nH]c(C(=O)N[C@H](CO)c3ccccc3)c2)n1 | 860 |  |  |  |  |
| CCc1ccccc1Nc1ncc(C)c(-c2c[nH]c(C(=O)N[C@H](CO)c3ccccc3)c2)n1 | 1430 | 66 | 760 | 210 | 3 |
| Cc1cnc(Nc2cccc3c2CCC3)nc1-c1c[nH]c(C(=O)N[C@H](CO)c2cccc(Cl)c2)c1 | 550 | 250 | 350 | 642 | < 2 |
| Cc1cnc(Nc2ccccc2O)nc1-c1c[nH]c(C(=O)N[C@H](CO)c2ccccc2)c1 | 99 | 3000 | < 2 | < 100 | 4 |
| Cc1cnc(Nc2ccccc2)nc1-c1c[nH]c(C(=O)N[C@H](CO)c2ccccc2)c1 | 15 | 29 |  |  | < 2 |
| Cc1cnc(Nc2cccc3c2OCCO3)nc1-c1c[nH]c(C(=O)N[C@H](CO)c2cccc(Cl)c2)c1 | 11 | 58 | 45 | 138 | 15 |
